Source: patent US9688639B2, “Solid forms of fungicidal pyrazoles” (E. I. DU PONT DE NEMOURS AND COMPANY, priority 2013, dated 2017)

Experiments:
Assay type in all cases: physicochemical
[1] = Single crystal X-ray diffraction (calculated density); conditions: from single crystal X-ray data collected at −100° C.
Method: Suitable single crystals for polymorph Form A were grown from methanol evaporation. A colorless irregular plate with approximate dimensions of 0.520×0.300×0.060 mm was chosen for data collection and mounted on a polymer loop. Single crystal data was collected using a Bruker Platform goniometer with an Apex-II detector. The diffractometer was equipped with an incident beam monochromator using Mo-Kα radiation (λ=0.71073 Å) and a monocap collimator. The crystals were cooled in a −100° C. nitrogen flow during data collection.
The data were indexed and integrated using the Apex-II suite of programs including Sainplus and SADABS. The monoclinic cell parameters were determined to be: a=7.870(5) Å, b=28.037(16) Å, c=7.976(5) Å, beta=103.875(10) °, volume=1708.6(17) Å^3. The space group was determined to be P21/n. The molecular weight was 412.66 g/mol giving a calculated density of 1.604 g/cm^3, and μ(Mo)=2.59 mm^−1 for Z=4. Data reduction led to 3487 unique data from a two-theta range=5.46 to 52.92°. […]
The data were indexed and integrated using the Apex-II suite of programs including Sainplus and SADABS. The orthorhombic cell parameters were determined to be: a=14.285(3) Å, b=11.464(2) Å, c=20.010(3) Å, volume=3276.9(10) Å^3. The space group was determined to be Pbca. The molecular weight was 412.66 g/mol giving a calculated density of 1.673 g/cm^3, and μ(Mo)=2.70 mm^−1 for Z=8. […]

[2] = Temperature-dependent X-ray powder diffraction (stability with respect to temperature); conditions: heated from 25° C. at 10° C. per minute; pXRD
Method: To assess the stability of polymorph Form B of Compound 1 with respect to temperature, X-ray powder diffraction patterns were obtained while heating a sample of Form B from 25° C. to above its melting point. The measurement was conducted at the 5-IDD beam line at the Advanced Photon Source synchrotron located at the Argonne National Laboratory (Argonne, Ill., USA). A Differential-Scanning Calorimeter (DSC, Model DSC600, Linkam Scientific Instruments, Tadworth, U.K.) was mounted in vertical orientation to allow insertion of the DSC into the X-ray beam. The DSC was positioned in the beam line to accept a 100-200 μm square beam under high vacuum. The standard quartz window was replaced with polyimide film (Kapton®, 8 μm thickness, DuPont, Wilmington, Del., USA). An internal thermocouple was installed for temperature recording. A circular charged couple device (CCD) detector (Model Mar165, 165 mm diameter, Marresearch GmbH, Norderstedt, Germany) was used to detect the X-rays scattered from the sample. The detector was equipped with an aluminum cone that covered the detector and extended 100 mm from the face of the detector. This cone was equipped with a beam stop support and 5×3 mm lead beam stop. The cone was continuously purged with helium to minimize air scattering. […]

[3] = Differential Scanning Calorimetry; conditions: DSC, heated at 2° C./min
Method: Differential Scanning Calorimetry was used to study the crystalline phases of various samples of Compound 1. Data were obtained with a TA Instruments Q20-1220 Differential Scanning Calorimeter (V24.2 Build 107) using a standard cell (FC-03859). Samples were prepared by weighing between 4 and 5 mg of Compound 1 in a gold plated pan (Fauske and Associates, LLC, Burr Ridge, Ill.; part number DSC-M20). The corresponding lid was crimped tightly to the pan and the assembled crucible was inserted into the calorimeter. An empty crucible of the same type was prepared the same way and inserted as the reference. After the instrument was initialized, the sample was first equilibrated at 25° C. and then heated at 2° C./min to a maximum temperature of 225° C.

calculated density [1] [g/mL]	temperature until which the form persists before it converts to polymorph Form A [2] [°C]	broad endotherm signal maximum (transition of Form B to Form A) [3]	heat of transition ([3]; Form B to Form A) [J/g]	Compound
1.604	–	–	–	Cc1nn(C)c(Nc2c(F)cccc2Cl)c1-c1ccc(F)cc1Br [polymorph Form A, 4-(2-bromo-4-fluorophenyl)-N-(2-chloro-6-fluorophenyl)-1,3-dimethyl-1H-pyrazol-5-amine]
1.673	138	about 148 °C	12	Cc1nn(C)c(Nc2c(F)cccc2Cl)c1-c1ccc(F)cc1Br [polymorph Form B, 4-(2-bromo-4-fluorophenyl)-N-(2-chloro-6-fluorophenyl)-1,3-dimethyl-1H-pyrazol-5-amine]
